Results taken from paper PMC5048338, “Discovery of 4,6-disubstituted pyrimidines as potent inhibitors of the heat shock factor 1 (HSF1) stress pathway and CDK9” (Medchemcomm, 2016).
Like-named read-outs stand apart in the source and are kept apart here.

What was measured:
CDK2/cyclinE = CDK2/cyclinE (Homo sapiens, UniProt P24941); assay: CDK2 enzyme assay: off-chip mobility shift assay; format: biochemical; design: purchased Upstate/Millipore; conditions: for IC50: biochemical, CDK2/cyclinE, average of two determinations; for fold drop in potency in the CDK2 assay / fold improvement in CDK2 inhibition: relative to compound 3
Protocol: CDK2 enzyme assay: Off-chip Mobility SHIFT Assay
All reagents were purchased from Sigma-Aldrich unless otherwise specified. Inhibition of CDK2/cyclinE activity was quantified using an off-chip incubation, mobility shift assay, which uses a microfluidic chip (Caliper Life Sciences) to measure the conversion of a fluorescent peptide substrate to phosphorylated product. An Off-chip Mobility Shift Chip with 12 sippers (Caliper Life Sciences) was prepared for use according to the manufacturer’s instructions using Coating Reagent #3 (Caliper Life Sciences). The off-chip incubation was carried out in white, 384-well, flat bottom, low volume assay plates (Greiner). 5 µL peptide mix (1.5 µM substrate peptide (fluorescein-QSPKKG-CONH2, Bachem) and 90 µM ATP in kinase base buffer (50 mM HEPES, pH7.5 (Calbiochem), 0.06% CHAPSO)) were added to each well of the prepared compound plates which contained 120 nL compound stock solution per well. The reaction was then initiated by the addition of 6 µL enzyme mix (1.0 nM CDK2/cyclin E (Upstate/Millipore), 1.0 mM DTT and 5.0 mM MgCl2 in kinase base buffer). After incubation for 60 min at room temperature, each reaction was terminated by the addition of 10µL of stop solution containing 100 mM HEPES pH 7.5 (Calbiochem), 0.033% Brij-35, 0.22% Coating Reagent #3 (Caliper Life Sciences), 44 mM EDTA and 5 % DMSO. Reaction products were analysed using a Caliper LabChip LC3000 instrument and peak height was used to calculate percentage conversion of substrate to product.
For compound response testing, a 12 point compound concentration range was used. Compounds were acoustically dosed (Echo 555; Labcyte) into assay-ready plates using 11 half log intervals from 100 μM to […] plus a 12th point at 0.01 μM. Each well was backfilled with the required volume up to 120 nL of 100% DMSO to ensure a final 1% v/v DMSO concentration in the assay. In addition to the compound test wells, each plate carried maximum and minimum controls. Staurosporine at 10 μM was used to inhibit CDK2 activity for the minimum control. As a maximum control, 120 nL pure DMSO was added to the wells. Each plate contained at least 11 randomly distributed maximum and minimum controls. After the addition of compounds to the assay plates, the assay was performed as detailed above. Percentage conversion of substrate to product was used to calculate the effect of each compound on the kinase activity of CDK2/cyclinE. Enzyme inhibition model 3, non-linear curve fit analysis within OriginLab™ software was used to fit dose response curves and estimate the […]
concentration of compound required to reduce the enzyme activity to 50% of the conversion calculated from an average of the maximum controls.
Cell-based ELISA (Cellisa) for HSP72 expression
To follow HSP72 protein expression, a product of HSF1 transcriptional activity, Cellisa was developed. Cells (5-8x10^4cells/ml) were seeded into 96-well plates and incubated at 37 °C for 48 h.
Compounds were then added at a range of concentrations and incubated for 1 h before addition of 17-AAG (250 nM). Cells were then incubated for 18 h. The medium was removed and cells were fixed with fixing solution (4% paraformaldehyde, 0.3% TritonX-100 in PBS) for 30 min at 4 °C. The plates were then washed with 0.1% Tween-20/deionised water before blocking with 5% milk for 30 min at 37 °C. After washing the plates, HSP72 antibody (SPA-810, Enzo Life) was added for 1.5 h at 37 °C.
Following 4 x washes, the plates were incubated with europium-labelled anti-mouse antibody (0.6ug/ml) in Delfia assay buffer (Perkin Elmer) for 1 h at 37 °C. After washing the plates, Delfia enhancement solution was added, shaken for 10 min before reading in the Envision plate reader (Perkin-Elmer) with excitation at 340 nm and emission at 615 nm. The plates were washed again before protein determination using the BCA assay. The europium counts were normalised for the amount of protein in each well. The 50% inhibitory concentration value of the compound was then calculated and presented. […]

HSF1-stress pathway = assay: ArrayScan HSP72 protein assay (HSF1-stress pathway inhibition, 17-AAG induced); conditions: for IC50: Homo sapiens, U2OS, read-out: HSF1 IC50; for fold drop in potency in the HSF1-stress pathway assay / fold increase in HSF1-stress pathway inhibition: relative to compound 3
Protocol: To discover inhibitors of the HSF1-stress pathway, we employed an automated cellular imaging and analysis method (ArrayScan™) that quantifies the ability of a compound to suppress the expression of the HSF1-mediated inducible HSP70 isoform, HSP72.
U2OS cells (1500 per well) were plated in 40 μL of DMEM media (containing 10% fetal calf serum and 2 mM Glutamax T-1) in costar 384-well plates and left overnight at 37 °C and 5% CO2 to adhere.
treatment with compound, all wells except min wells were dosed with 17AAG diluted in DMSO (10
°C and 5% CO2. The following day the cells were fixed by addition of 20 μL/well of 12% formaldehyde with 1:1700 Hoechst in PBS for 10 min at room temperature. The fixative was decanted and the wells washed once with 50 μL of phosphate buffer saline (PBS).The PBS was subsequently aspirated, and the cells were permeabilized by addition of 20 μL/well of PBS 0.3% Triton X-100 for 20 min at room temperature. The wells were then washed with 80 μL of PBS prior to the addition of 20 μL of combined primary and secondary antibodies diluted in PBS (1:10 000 mouse anti-Hsp72
11001 molecular probes), for 2 h at room temperature. The wells were then washed with 50 μL of PBS. Finally, 50 μL of PBS was added to each well, and the plates were sealed ready to analyze.
Analysis was carried out using a Cellomics Arrayscan VTI instrument and the Cellomics Arrayscan Compartmental Analysis algorithm to measure cellular levels of HSP72.
100 μM to 0.1 μM plus a 12th point at 0.01 μM. Each well was backfilled with the required volume up to 120 nL of 100% DMSO to ensure a final 1% v/v DMSO concentration in the assay. In addition to the compound test wells, each plate carried maximum and minimum controls. Staurosporine at 10 μM was used to inhibit CDK2 activity for the minimum control. As a maximum control, 120 nL pure DMSO was added to the wells. Each plate contained at least 11 randomly distributed maximum and minimum controls. After the addition of compounds to the assay plates, the assay was performed as detailed above. Percentage conversion of substrate to product was used to calculate the effect of each compound on the kinase activity of CDK2/cyclinE. Enzyme inhibition model 3, non-linear curve fit analysis within OriginLab™ software was used to fit dose response curves and estimate the

CDK9/cyclin T1 = target: T1, CDK9/cyclin T1 (Homo sapiens, UniProt P50750); assay: EMD Millipore (Eurofins) CDK panel; format: biochemical; conditions: EMD Millipore screening panel, N = 1
T1 construct: purchased EMD Millipore screening panel (now Eurofins)
Protocol: Therefore 4,6-pyrimidine 3 was submitted to a EMD Millipore CDK panel to assess potency across the selected CDK family members (Table 3). Modest activity was observed against several CDKs; […]. […]. page 4: […]
(§1) mM Mg Acetate and [9-33P]-ATP (specific activity approx. 500 cpm/pmol, concentration as required). The reaction is initiated by the addition of the MgATP mix. After incubation for 40 minutes at room temperature, the reaction is stopped by the addition of 3% phosphoric acid solution. 10 μL of the reaction is then spotted onto a P30 filtermat and washed three times for 5 minutes in 75 mM phosphoric acid and once in methanol prior to drying and scintillation counting. […]
CDK9/cyclinT1 (h) is incubated with 8 mM MOPS pH 7.0, 0.2 mM EDTA, 100 μM […]
, 10 mM MgAcetate and […]
as §1, with “(specific” for “mM Mg Acetate and [9-33P]-ATP (specific”

[1] = tested on: HSF1-mediated HSP72 induction; assay: Cell-based ELISA (Cellisa) for HSP72 expression; conditions: Homo sapiens, U2OS, read-out: HSF1 IC50 (cell-ELISA, HSP72 induction inhibition)
U2OS cells = assay: SRB cell growth inhibition assay; format: cell-based; conditions: Homo sapiens, 96 h, read-out: SRB GI50
CDK9/CyclinT1 [2] = assay: Adapta screen assay, Life Technologies; conditions: ratio between CDK2/7/9, below limit of assay detection
CDK9/CyclinT1 [3] = conditions: ratio between CDK2/7/9; ref Yin et al., Mol. Cancer Ther., 2014, 13, 1442-1456; cited from earlier work
CDK7/CyclinH/MAT1 = conditions: ratio between CDK2/7/9; ref Yin et al., Mol. Cancer Ther., 2014, 13, 1442-1456; cited from earlier work

T1 sequence (P50750 whole entry): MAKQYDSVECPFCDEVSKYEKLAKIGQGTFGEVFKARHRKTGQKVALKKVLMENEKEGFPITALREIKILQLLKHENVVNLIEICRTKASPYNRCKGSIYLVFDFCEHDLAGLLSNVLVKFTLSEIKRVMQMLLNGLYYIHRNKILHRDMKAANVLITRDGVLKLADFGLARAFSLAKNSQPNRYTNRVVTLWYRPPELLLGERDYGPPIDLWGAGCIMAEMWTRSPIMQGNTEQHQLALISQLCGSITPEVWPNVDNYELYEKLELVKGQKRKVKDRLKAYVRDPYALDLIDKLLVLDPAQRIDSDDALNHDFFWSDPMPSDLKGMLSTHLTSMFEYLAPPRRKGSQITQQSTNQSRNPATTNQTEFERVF
T1 sequence (O60563 whole entry partner): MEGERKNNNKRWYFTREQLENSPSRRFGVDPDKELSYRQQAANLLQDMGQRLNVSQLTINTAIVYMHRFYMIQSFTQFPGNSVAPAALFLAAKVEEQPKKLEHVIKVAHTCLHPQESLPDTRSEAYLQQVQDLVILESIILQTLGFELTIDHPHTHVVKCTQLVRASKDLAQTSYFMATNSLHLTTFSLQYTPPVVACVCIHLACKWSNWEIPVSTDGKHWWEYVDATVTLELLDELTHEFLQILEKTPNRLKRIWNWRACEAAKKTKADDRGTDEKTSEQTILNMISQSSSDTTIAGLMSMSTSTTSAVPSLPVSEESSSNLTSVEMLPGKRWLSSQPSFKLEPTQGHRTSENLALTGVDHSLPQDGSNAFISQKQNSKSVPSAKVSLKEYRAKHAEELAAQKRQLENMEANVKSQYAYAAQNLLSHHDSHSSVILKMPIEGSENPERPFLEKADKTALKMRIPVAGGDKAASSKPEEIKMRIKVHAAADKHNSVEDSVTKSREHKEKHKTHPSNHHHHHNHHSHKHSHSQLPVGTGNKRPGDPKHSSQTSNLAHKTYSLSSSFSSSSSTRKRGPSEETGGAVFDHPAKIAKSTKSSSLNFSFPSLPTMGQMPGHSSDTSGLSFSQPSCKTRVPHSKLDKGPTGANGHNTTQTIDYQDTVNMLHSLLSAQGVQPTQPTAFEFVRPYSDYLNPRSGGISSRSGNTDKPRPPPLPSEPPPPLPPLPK

| Structure (SMILES) | IC50 (CDK2/cyclinE) | IC50 (HSF1-stress pathway) | other results |
| --- | --- | --- | --- |
| CN(C)CCOc1ccc(Nc2cc(-n3cnc4cccnc43)ncn2)nc1 [Compound 10] | 1600 nM | 760 nM | – |
| Cc1ccc2ncn(-c3cc(Nc4ccc(OCCN(C)C)cn4)ncn3)c2c1 [Compound 12] | 121 nM | 39 nM | – |
| CN(C)CCOc1ccc(Nc2cc(-c3cnc4ccccc4c3)ncn2)nc1 [Compound 9] | > 100000 nM | 17600 nM | activity in the CDK2 assay (CDK2/cyclinE; compared to benzimidazole 3): inactive; fold drop in potency in the HSF1-stress pathway assay (HSF1-stress pathway): ~200 fold |
| CN(C)CCOc1ccc(Nc2cc(-n3ncc4ccccc43)ncn2)nc1 [Compound 7] | 29800 nM | > 30000 nM | – |
| CN(C)CCOc1ccc(Nc2cc(-n3ccnc3)ncn2)nc1 [Compound 6] | 7100 nM | 6150 nM | fold drop in potency in the CDK2 assay (CDK2/cyclinE): 12 fold; fold drop in potency in the HSF1-stress pathway assay (HSF1-stress pathway): 77 fold; IC50 (CDK9/cyclin T1): 88 nM |
| OCCc1ccc(Nc2cc(-n3cnc4ccccc43)ncn2)cc1 [Compound 1] | 1140 nM | 2000 nM | – |
| CN1CCC[C@@H]1COc1ccc(Nc2cc(-n3cnc4ccccc43)ncn2)nc1 [Compound 17] | 492 nM | – | IC50 (CDK9/cyclin T1): 8 nM |
| CC(C)c1c2cc(-c3ccnc(NC4CCC(NC5CCOCC5)CC4)n3)ccc2nn1C (stereo not drawn) [LY2857785] | – | – | ratio of activity CDK9/CyclinT1 (CDK9/CyclinT1 [3]): 1; ratio of activity CDK7/CyclinH/MAT1 (CDK7/CyclinH/MAT1): 22 |
| CN(C)CCOc1ccc(Nc2cc(-n3cnc4ncccc43)ncn2)nc1 [Compound 11] | 161 nM | 28 nM | fold improvement in CDK2 inhibition (CDK2/cyclinE): 5 fold; fold increase in HSF1-stress pathway inhibition (HSF1-stress pathway): 3 fold |
| Cc1nc2ccccc2n1-c1cc(Nc2ccc(OCCN(C)C)cn2)ncn1 [Compound 13] | 4610 nM | 4280 nM | fold drop in potency in the CDK2 assay (CDK2/cyclinE): > 7 fold; fold drop in potency in the HSF1-stress pathway assay (HSF1-stress pathway): > 7 fold |
| CC(C)(C)c1cnc(CSc2cnc(NC(=O)C3CCNCC3)s2)o1 [SNS-032, reference compound] | – | – | IC50 [1]: 750 nM; GI50 (U2OS cells; U2OS): 370 nM |
| CN(C)CCOc1ccc(Nc2cc(-n3ccc4ccccc43)ncn2)nc1 [Compound 8] | 4430 nM | 2330 nM | – |
| CN(C)CCCOc1ccc(Nc2cc(-n3cnc4ccccc43)ncn2)nc1 [Compound 4] | 368 nM | 165 nM | – |
| CN(C)CCOc1ccc(Nc2cc(-n3cnc4ccccc43)ncn2)cc1 [Compound 2] | 20000 nM | 1350 nM | fold difference in activity between the CDK2 and HSF1-stress pathway assays (HSF1-stress pathway; CDK2 IC50 versus HSF1 IC50): 15 fold |

The next lines start with results.

| IC50 (CDK2/cyclinE) | IC50 (HSF1-stress pathway) | Structure (SMILES) | other results |
| --- | --- | --- | --- |
| 836 nM | 1380 nM | C[C@H]1CN(C)CCN1c1ccc(Nc2cc(-n3cnc4ccccc43)ncn2)nc1 [Compound 22] | – |
| 1240 nM | 884 nM | CN1CCC(Oc2ccc(Nc3cc(-n4cnc5ccccc54)ncn3)nc2)CC1 [Compound 20] | – |
| 554 nM | 295 nM | c1ccc2c(c1)ncn2-c1cc(Nc2ccc(OCCN3CCOCC3)cn2)ncn1 [Compound 18] | – |
| 59 nM | 842 nM | c1ccc(Nc2cc(-n3cnc4ccccc43)ncn2)nc1 [Compound 14] | fold improvement in CDK2 inhibition (CDK2/cyclinE): 10 fold; fold drop in potency in the HSF1-stress pathway assay (HSF1-stress pathway): 10 fold |
| 643 nM | 450 nM | CN1CCN(c2ccc(Nc3cc(-n4cnc5ccccc54)ncn3)nc2)CC1 [Compound 21] | IC50 (CDK9/cyclin T1): 22 nM |
| 55 nM | 15 nM | c1cnc2ncn(-c3cc(Nc4ccc(OCCN5CCCCC5)cn4)ncn3)c2c1 [Compound 25] | IC50 [1]: 15 nM; GI50 (U2OS cells; U2OS cells, single agent, average of two determinations): 5 nM; ratio of activity CDK9/CyclinT1 (CDK9/CyclinT1 [2]): 1 |
| 535 nM | – | CN1CCC[C@H]1COc1ccc(Nc2cc(-n3cnc4ccccc43)ncn2)nc1 [Compound 16] | – |
| 358 nM | 57 nM | c1ccc2c(c1)ncn2-c1cc(Nc2ccc(OCCN3CCCCC3)cn2)ncn1 [Compound 19] | fold increase in HSF1-stress pathway inhibition (HSF1-stress pathway): 2 fold; IC50 (CDK9/cyclin T1): 8 nM |
| 690 nM | 198 nM | CN(C)CCCc1ccc(Nc2cc(-n3cnc4ccccc43)ncn2)nc1 [Compound 15] | – |
| 776 nM | 610 nM | CN(C)C1CCN(c2ccc(Nc3cc(-n4cnc5ccccc54)ncn3)nc2)CC1 [Compound 23] | – |
| 146 nM | – | CN1CCC[C@H]1COc1ccc(Nc2cc(-n3cnc4ncccc43)ncn2)nc1 [Compound 24] | – |
